From PubChem BioAssay AID743424 (The Scripps Research Institute Molecular Screening Center, 2014)
The source made the active and inactive calls. No rule for the calls is given here.

Molecular target: Sphingosine 1-phosphate receptor 3 (Homo sapiens) (UniProt Q99500)
Assay: S1P3 receptor agonist activity, late-stage follow-up, counter-screen for S1PR3 antagonist project, cell-based, fluorescence, dose response (AID 743424)
Conditions: S1P3-expressing cells, agonist-mode fluorescence counterscreen

Sphingosine 1-phosphate receptor 3 (Homo sapiens), sequence (Q99500 whole entry, looked up): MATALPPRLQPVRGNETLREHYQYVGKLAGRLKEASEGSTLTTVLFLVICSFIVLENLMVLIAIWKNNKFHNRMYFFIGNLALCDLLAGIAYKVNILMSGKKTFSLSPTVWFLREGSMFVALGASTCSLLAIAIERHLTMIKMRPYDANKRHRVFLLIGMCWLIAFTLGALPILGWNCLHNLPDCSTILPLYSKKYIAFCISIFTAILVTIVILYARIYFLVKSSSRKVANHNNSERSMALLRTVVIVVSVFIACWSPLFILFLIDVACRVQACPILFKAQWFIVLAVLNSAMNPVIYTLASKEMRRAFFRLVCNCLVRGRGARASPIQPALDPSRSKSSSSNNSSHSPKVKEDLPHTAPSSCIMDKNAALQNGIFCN

| SMILES | EC50 |
| --- | --- |
| COc1ccc(C(=O)NC(c2ccccc2)c2nc(-c3ccccc3)no2)cc1 (configuration not stated) | > 50 µM (inactive) |
| O=C(NC(c1cccc(Cl)c1)c1nc(-c2ccccc2)no1)c1cc(Cl)cc(Cl)c1 (configuration not stated) | > 50 µM (inactive) |
| O=C(NC(c1ccc(Cl)c(Cl)c1)c1nc(-c2ccccc2)no1)c1ccc(Cl)cc1 (configuration not stated) | > 50 µM (inactive) |
| N#Cc1ccc(C(=O)NC(c2ccc(Cl)c(Cl)c2)c2nc(-c3ccccc3)no2)cc1 (configuration not stated) | > 50 µM (inactive) |
| Cc1ccc(C(=O)NC(c2ccccc2)c2nc(-c3ccccc3)no2)cc1 (configuration not stated) | > 50 µM (inactive) |
| O=C(NC(c1ccc(Cl)c(Cl)c1)c1nc(-c2ccccc2)no1)c1ccc(Cl)c(Cl)c1 (configuration not stated) | > 50 µM (inactive) |
| O=C(NC(c1ccc(Cl)cc1)c1nc(-c2ccccn2)no1)c1cccc(Cl)c1 (configuration not stated) | > 50 µM (inactive) |
| O=C(c1cccc(Cl)c1)N(CCO)C(c1ccc(Cl)c(Cl)c1)c1nc(-c2ccccc2)no1 (configuration not stated) | > 50 µM (inactive) |
| O=C(NC(c1nc(-c2ccccc2)no1)C1CCCCC1)c1ccc(Cl)c(Cl)c1 (configuration not stated) | > 50 µM (inactive) |
| O=C(NC(Cc1ccccc1)c1nc(-c2ccccc2)no1)c1cccc(Cl)c1 (configuration not stated) | > 50 µM (inactive) |
| O=C(NC(c1nc(-c2ccccc2)no1)C1CCOCC1)c1ccc(Cl)c(Cl)c1 (configuration not stated) | > 50 µM (inactive) |
| O=C(NC(c1ccccc1)c1nc(-c2ccccc2)no1)c1cccc(Cl)n1 (configuration not stated) | inactive |

Other lines, results leading:

| EC50 | SMILES |
| --- | --- |
| > 50 µM (inactive) | O=C(NC(c1ccc(Cl)cc1)c1nc(-c2cccc(Cl)c2)no1)c1cccc(Cl)c1 (configuration not stated) |
| > 50 µM (inactive) | O=C(NC(c1ccccc1)c1nc(-c2ccccc2)no1)c1ccc(Cl)cc1 (configuration not stated) |
| > 50 µM (inactive) | O=C(NC(c1ccc(Cl)cc1)c1nc(-c2ccccc2)no1)c1cccc(Cl)c1 (configuration not stated) |
| > 50 µM (inactive) | CCc1ccc(C(NC(=O)c2cccc(Cl)c2)c2nc(-c3ccccc3)no2)cc1 (configuration not stated) |
| > 50 µM (inactive) | O=C(NC(c1ccc(Br)cc1)c1nc(-c2ccccc2)no1)c1ccc(Cl)c(Cl)c1 (configuration not stated) |
| > 50 µM (inactive) | O=C(NC(c1cccc(Cl)c1)c1nc(-c2ccccc2)no1)c1cccc(Cl)c1 (configuration not stated) |
| > 50 µM (inactive) | O=C(NC(c1ccccc1)c1nc(-c2ccccc2)no1)c1cccc(Br)c1 (configuration not stated) |
| > 50 µM (inactive) | O=C(NC(c1ccc(Cl)cc1)c1nc(-c2ccccc2)no1)c1ccc(Cl)c(Cl)c1 (configuration not stated) |
| > 50 µM (inactive) | O=C(NC(c1ccc(Cl)c(Cl)c1)c1nc(-c2ccccc2)no1)c1ccccc1 (configuration not stated) |
| > 50 µM (inactive) | O=C(NC(c1ccc(Cl)cc1)c1nc(-c2ccccc2)no1)c1ccc(Cl)c(Br)c1 (configuration not stated) |
| > 50 µM (inactive) | Cc1ccc(C(NC(=O)c2cccc(Cl)c2)c2nc(-c3ccccc3)no2)cc1 (configuration not stated) |
| > 50 µM (inactive) | O=C(NC(c1ccccc1)c1nc(-c2ccccc2)no1)c1cccc(Cl)c1 (configuration not stated) |
| > 50 µM (inactive) | O=C(NC(c1ccc(Cl)cc1)c1nc(-c2ccccc2)no1)c1cccc(Br)c1 (configuration not stated) |
| > 50 µM (inactive) | O=C(NC(c1ccc(Cl)c(Cl)c1)c1nc(-c2ccccc2)no1)c1cccc(Cl)c1 (configuration not stated) |
| > 50 µM (inactive) | O=C(NC(c1cccc(Cl)c1)c1nc(-c2ccccc2)no1)c1ccc(Cl)c(Cl)c1 (configuration not stated) |
